Measured values from patent US20070015823A1, “Ambruticin VS compounds” (priority 2004, published 2007).
Converted amounts (≈) assume the structure as drawn. Read-outs that look alike come from different tables or passages of the source.

Experiments:
Microsporum canis = experiment: Dermatophyte broth microdilution, NCCLS M38-A; format: cell-based
[1] = system: Trichophyton interdigitale; experiment: Dermatophyte broth microdilution, NCCLS M38-A; format: cell-based
Trichophyton rubrum = experiment: Dermatophyte broth microdilution, NCCLS M38-A; format: cell-based
Epidermophyton floccosum = experiment: Dermatophyte broth microdilution, NCCLS M38-A; format: cell-based
A. flavus ATCC 204304 = experiment: Broth microdilution antifungal susceptibility, NCCLS M38-A; format: cell-based, Aspergillus flavus; conditions: minimal concentration inhibiting >95% growth; average of at least two assays (except I-l and I-x)
[2] = system: Trichophyton mentagrophytes; experiment: Dermatophyte broth microdilution, NCCLS M38-A; format: cell-based
A. fumigatus ATCC 204305 = experiment: Broth microdilution antifungal susceptibility, NCCLS M38-A; format: cell-based, Aspergillus fumigatus; conditions: minimal concentration inhibiting >95% growth; average of at least two assays (except I-l and I-x)
Microsporum gypseum = experiment: Dermatophyte broth microdilution, NCCLS M38-A; format: cell-based
Blastomyces dermatitidis = experiment: Broth microdilution antifungal susceptibility, NCCLS M38-A; format: cell-based
Cryptococcus neoformans = experiment: as above; conditions: 50% growth inhibition, range = minimum and maximum of multiple assays; for MIC C. neoformans 97-14: strain 97-14; for MIC C. neoformans 11239: strain 11239; for MIC C. neoformans 11240: strain 11240
Histoplasma capsulatum = format: cell-based
C. posadasii = experiment: microbe, parasite or virus in culture; format: cell-based, Coccidioides posadasii; conditions: for MIC: Coccidioides posadasii
C. immitis = experiment: microbe, parasite or virus in culture; format: cell-based, Coccidioides immitis; conditions: for MIC: Coccidioides immitis

Compound	MIC0 Mc (Microsporum canis)	MIC0 Ti [1]	MIC0 Tr (Trichophyton rubrum)	MIC0 Ef (Epidermophyton floccosum)	MIC0 A. flavus ATCC 204304 (A. flavus ATCC 204304)	MIC0 Tm [2]	MIC0 A. fumigatus ATCC 204305 (A. fumigatus ATCC 204305)	MIC0 Mg (Microsporum gypseum)	MIC B. dermatitidis Gu (Blastomyces dermatitidis)	MIC B. dermatitidis Kr (Blastomyces dermatitidis)	MIC B. dermatitidis V (Blastomyces dermatitidis)	MIC C. neoformans 97-14 (Cryptococcus neoformans)	MIC C. neoformans 11239 (Cryptococcus neoformans)	MIC C. neoformans 11240 (Cryptococcus neoformans)	MIC H. capsulatum G217B (Histoplasma capsulatum)	MIC H. capsulatum GS20 (Histoplasma capsulatum)	also measured
CC[C@H]1O[C@@H](/C(C)=C/[C@H](C)/C=C/[C@H]2[C@@H](C)[C@@H]2/C=C/[C@@H]2O[C@H](CC(=O)O)C[C@H](N(C)C(C)=O)[C@H]2O)CC=C1C [I-i, (5S,6R)-5-[N-methyl(acetamido)]-6-hydroxypolyangioic acid]	>8 µg/mL	>8 µg/mL	>8 µg/mL	>8 µg/mL	>32 µg/mL	>8 µg/mL	32 µg/mL	>8 µg/mL	–	–	–	–	–	–	–	–	–
C=CCNC(=O)N(C)[C@H]1C[C@@H](CC(=O)O)O[C@@H](/C=C/[C@H]2[C@H](C)[C@@H]2/C=C/[C@@H](C)/C=C(\C)[C@H]2CC=C(C)[C@@H](CC)O2)[C@@H]1O [I-q, (5S,6R)-5-(3-allyl-1-methylureido)-6-hydroxypolyangioic acid]	>8 µg/mL	12.69 µg/mL	>8 µg/mL	>8 µg/mL	32 µg/mL	>8 µg/mL	16 µg/mL	>8 µg/mL	–	–	–	–	–	–	–	–	–
CCCN(C)[C@H]1C[C@@H](CC(=O)O)O[C@@H](/C=C/[C@H]2[C@H](C)[C@@H]2/C=C/[C@@H](C)/C=C(\C)[C@H]2CC=C(C)[C@@H](CC)O2)[C@@H]1O [I-t, (5S,6R)-5-(N-propyl-methylamino)-6-hydroxypolyangioic acid]	2.82 µg/mL	1.25 µg/mL	1.58 µg/mL	1.41 µg/mL	2.25 µg/mL	11.31 µg/mL	2.25 µg/mL	2 µg/mL	>12.5 µg/mL	>12.5 µg/mL	>12.5 µg/mL	0.5 µg/mL (≈ 0.944 µM)	1 µg/mL (≈ 1.89 µM)	0.5 µg/mL (≈ 0.944 µM)	<0.19 µg/mL	<0.19 µg/mL	–
CC[C@H]1O[C@@H](/C(C)=C/[C@H](C)/C=C/[C@H]2[C@@H](C)[C@@H]2/C=C/[C@@H]2O[C@H](CC(=O)O)C[C@H](NC3CCC3)[C@H]2O)CC=C1C [I-jj, (5S,6R)-5-(cyclobutylamino)-6-hydroxypolyangioic acid]	8 µg/mL	2.51 µg/mL	3.17 µg/mL	5.65 µg/mL	5.33 µg/mL	>8 µg/mL	6.67 µg/mL	1.25 µg/mL	–	–	–	0.125 µg/mL (≈ 0.237 µM)	2 µg/mL (≈ 3.79 µM)	2 µg/mL (≈ 3.79 µM)	–	–	–
CCCCN(C)[C@H]1C[C@@H](CC(=O)O)O[C@@H](/C=C/[C@H]2[C@H](C)[C@@H]2/C=C/[C@@H](C)/C=C(\C)[C@H]2CC=C(C)[C@@H](CC)O2)[C@@H]1O [I-u, (5S,6R)-5-(N-butyl-methylamino)-6-hydroxypolyangioic acid]	5.65 µg/mL	3.17 µg/mL	3.17 µg/mL	2.82 µg/mL	4.5 µg/mL	11.31 µg/mL	4.25 µg/mL	4 µg/mL	>12.5 µg/mL	>12.5 µg/mL	>12.5 µg/mL	1 µg/mL (≈ 1.84 µM)	2 µg/mL (≈ 3.68 µM)	2 µg/mL (≈ 3.68 µM)	<0.19 µg/mL	<0.19 µg/mL	–
CCC(=O)N[C@H]1C[C@@H](CC(=O)O)O[C@@H](/C=C/[C@H]2[C@H](C)[C@@H]2/C=C/[C@@H](C)/C=C(\C)[C@H]2CC=C(C)[C@@H](CC)O2)[C@@H]1O [I-l, (5S,6R)-5-propionamido-6-hydroxypolyangioic acid]	1.41 µg/mL	0.79 µg/mL	1.58 µg/mL	2.82 µg/mL	16 µg/mL	5.66 µg/mL	8 µg/mL	0.79 µg/mL	–	–	–	–	–	–	–	–	–
CC[C@H]1O[C@@H](/C(C)=C/[C@H](C)/C=C/[C@H]2[C@@H](C)[C@@H]2/C=C/[C@@H]2O[C@H](CC(=O)O)C[C@H](NC3CCCC3)[C@H]2O)CC=C1C [I-d, (5S,6R)-5-(cyclopentylamino)-6-hydroxypolyangioic acid]	2.82 µg/mL	2.51 µg/mL	3.17 µg/mL	4 µg/mL	8.0 µg/mL	8 µg/mL	8.0 µg/mL	2.51 µg/mL	>12.5 µg/mL	>12.5 µg/mL	>12.5 µg/mL	–	–	–	<0.19 µg/mL	<0.19 µg/mL	–
CC[C@H]1O[C@@H](/C(C)=C/[C@H](C)/C=C/[C@H]2[C@@H](C)[C@@H]2/C=C/[C@@H]2O[C@H](CC(=O)O)C[C@H](N(C)C)[C@H]2O)CCC1C (some centres unmarked) [IV-b, 20,21-dihydro ambruticin VS-3]	1.41 µg/mL	2.51 µg/mL	2.51 µg/mL	1.41 µg/mL	0.44 µg/mL	4 µg/mL	0.88 µg/mL	1.25 µg/mL	–	–	–	–	–	–	–	–	–
CC[C@H]1O[C@@H](/C(C)=C/[C@H](C)/C=C/[C@H]2[C@@H](C)[C@@H]2/C=C/[C@@H]2O[C@H](CC(=O)O)C[C@H](N(C)CC)[C@H]2O)CC=C1C [I-a, (5S,6R)-5-(N-ethyl-methylamino)-6-hydroxypolyangioic acid]	1.41 µg/mL	2 µg/mL	2 µg/mL	4 µg/mL	2.0 µg/mL	5.65 µg/mL	2.0 µg/mL	2.51 µg/mL	–	–	–	1 µg/mL (≈ 1.94 µM)	2 µg/mL (≈ 3.88 µM)	2 µg/mL (≈ 3.88 µM)	–	–	–
OC(Cn1cncn1)(Cn1cncn1)c1ccc(F)cc1F [Fluconazole]	–	–	–	–	–	–	–	–	–	–	–	–	–	–	–	–	MIC (C. posadasii; read-out: MIC C. posadasii C735): 16 µg/mL (≈ 52.2 µM); MIC (C. posadasii; read-out: MIC C. posadasii RMSCC 2127): 16 µg/mL (≈ 52.2 µM); MIC (C. posadasii; read-out: MIC C. posadasii Silveria): 4 µg/mL (≈ 13.1 µM); MIC (C. immitis; read-out: MIC C. immitis RMS 2281): 16 µg/mL (≈ 52.2 µM); MIC (C. immitis; read-out: MIC C. immitis RS): 16 µg/mL (≈ 52.2 µM); MIC (C. immitis; read-out: MIC C. immitis S46): 16 µg/mL (≈ 52.2 µM)
CC[C@H]1O[C@@H](/C(C)=C/[C@H](C)/C=C/[C@H]2[C@@H](C)[C@@H]2/C=C/[C@@H]2O[C@H](CC(=O)N3CCC3)C[C@H](N(C)C)[C@H]2O)CC=C1C [I-pp, (5S,6R)-1-(azetidin-1-yl)-5-dimethylamino-6-hydroxypolyangi-1-one]	–	–	–	–	2 µg/mL	–	4 µg/mL	–	–	–	–	–	–	–	–	–	MIC0 Mc (Microsporum canis; Microsporum canis (2 strains), 95% growth inhibition): 1 µg/mL; MIC0 Ti ([1]; Trichophyton interdigitale (3 strains), 95% growth inhibition): 5.03 µg/mL; MIC0 Tr (Trichophyton rubrum; Trichophyton rubrum (3 strains), 95% growth inhibition): ¼; MIC0 Ef (Epidermophyton floccosum; Epidermophyton floccosum (2 strains), 95% growth inhibition): 2.82 µg/mL; MIC0 Tm ([2]; Trichophyton mentagrophytes (2 strains), 95% growth inhibition): 4 µg/mL; MIC0 Mg (Microsporum gypseum; Microsporum gypseum (3 strains), 95% growth inhibition): 2.51 µg/mL
CCN[C@H]1C[C@@H](CC(=O)O)O[C@@H](/C=C/[C@H]2[C@H](C)[C@@H]2/C=C/[C@@H](C)/C=C(\C)[C@H]2CC=C(C)[C@@H](CC)O2)[C@@H]1O [I-mm, (5S,6R)-5-(ethylamino)-6-hydroxypolyangioic acid]	0.7 µg/mL	0.79 µg/mL	1.25 µg/mL	1.41 µg/mL	0.93 µg/mL	2.82 µg/mL	1.28 µg/mL	0.79 µg/mL	>12.5 µg/mL	>12.5 µg/mL	>12.5 µg/mL	0.125 µg/mL (≈ 0.249 µM)	0.25 µg/mL (≈ 0.498 µM)	0.0625 µg/mL (≈ 0.125 µM)	<0.19 µg/mL	<0.19 µg/mL	–
CCOC(=O)O[C@H]1[C@H](/C=C/[C@H]2[C@H](C)[C@@H]2/C=C/[C@@H](C)/C=C(\C)[C@H]2CC=C(C)[C@@H](CC)O2)O[C@H](CC(N)=O)C[C@@H]1N(C)C [I-ii, (5S,6R)-5-(dimethylamino)-6-ethoxycarbonyloxy-polyangiamide]	0.5 µg/mL	1.58 µg/mL	1.58 µg/mL	1 µg/mL	1 µg/mL	1.41 µg/mL	1 µg/mL	1 µg/mL	–	–	–	0.5 to 1 µg/mL	0.25 µg/mL (≈ 0.436 µM)	0.25 to 0.5 µg/mL	–	–	MIC C. posadasii C735 (C. posadasii): 0.5 µg/mL (≈ 0.873 µM); MIC C. posadasii RMSCC 2127 (C. posadasii): 0.25 µg/mL (≈ 0.436 µM); MIC C. posadasii Silveria (C. posadasii): 0.5 µg/mL (≈ 0.873 µM); MIC C. immitis RMS 2281 (C. immitis): 0.125 µg/mL (≈ 0.218 µM); MIC C. immitis RS (C. immitis): 0.25 µg/mL (≈ 0.436 µM); MIC C. immitis S46 (C. immitis): 0.25 µg/mL (≈ 0.436 µM)
